Some test systems named below: 786-0 renal; A498 renal; CAKI-1 renal; COLO 205 colon; HOP-92 NSCLC; HS 578T breast; K-562 leukemia; M14 melanoma; MOLT-4 leukemia; NCI-H226 lung; NCI-H460 lung; NCI/ADR-RES ovarian; SF-268 CNS; SK-MEL-28 melanoma; SK-MEL-5 melanoma; SK-OV-3 ovarian; SNB-75 CNS; U251 CNS; UACC-257 melanoma; BT-549 breast.
Common to all, as to test: NCI-60 cell line screen, 48 h

Results on 8 compounds are retold here after PubChem BioAssay (NCI).

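Values below derive from 48-hour exposures of cells grown in 96-well plates, with endpoints linearly interpolated between the two concentrations bracketing the appropriate inhibition level. TGI is the concentration that stops growth completely.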 Where a SMILES comes first, the peptide text is derived from it. The star is where a group is joined. Cbz = O=C(OCc1ccccc1)*

Turning to `Cc1[nH]c(=O)nc(N(CCO)/N=C/c2ccc(Cl)cc2)c1C(=O)Nc1ccc(Cl)cc1`, the TGI with 786-0 renal, in the assay on A498 renal, in the assay on CAKI-1 renal, in the assay on COLO 205 colon, with HOP-92 NSCLC and in the assay on HS 578T breast was above 100 µM throughout. The TGI in the assay with K-562 leukemia, in the assay with M14 melanoma, with MOLT-4 leukemia, in the assay on NCI-H226 lung, with NCI-H460 lung and with NCI/ADR-RES ovarian was above 100 µM each time. In addition, the TGI in the assay on SF-268 CNS is above 100 µM; with SK-MEL-28 melanoma it was above 100 µM; in the assay with SK-MEL-5 melanoma, above 100 µM; in the assay on SK-OV-3 ovarian it was above 100 µM; in the assay on SNB-75 CNS, above 100 µM; in the assay on U251 CNS, 69.2 µM. Moreover, the TGI with UACC-257 melanoma is above 100 µM.

Turning to `Cc1c(-c2ccc(O)c(O)c2)oc(=O)c2c(O)cccc12`, the TGI stood at 23.4 µM with 786-0 renal; 33.1 µM in the assay with A498 renal; 44.6 µM with BT-549 breast; 36 µM in the assay on CAKI-1 renal; 30.1 µM in the assay on COLO 205 colon; 58.2 µM in the assay with HOP-92 NSCLC. The TGI was 23.9 µM in the assay on HS 578T breast; 28.1 µM in the assay on K-562 leukemia; 20.7 µM with M14 melanoma; above 100 µM in the assay on MOLT-4 leukemia; 41 µM in the assay on NCI-H460 lung; 29.7 µM in the assay with NCI/ADR-RES ovarian. The TGI with SF-268 CNS came to 50.7 µM; in the assay on SK-MEL-5 melanoma, 24.8 µM; in the assay with SK-OV-3 ovarian it was 40.9 µM; in the assay on SNB-75 CNS, 76 µM; in the assay on U251 CNS, 26.1 µM; in the assay on UACC-257 melanoma it was 44.3 µM.

Turning to `NC(C(=O)OC(=O)c1ccccc1)C(=O)OC(=O)c1ccccc1`, the TGI in the assay on 786-0 renal, in the assay with A498 renal, in the assay on BT-549 breast, in the assay with CAKI-1 renal, with COLO 205 colon and in the assay with HS 578T breast was above 100 µM each time. Further, the TGI in the assay with K-562 leukemia, in the assay on M14 melanoma, with MOLT-4 leukemia, with NCI-H226 lung, in the assay with NCI-H460 lung and in the assay with NCI/ADR-RES ovarian was above 100 µM in each case. Also, the TGI in the assay with SF-268 CNS, in the assay on SK-MEL-28 melanoma, with SK-MEL-5 melanoma, with SNB-75 CNS, in the assay on U251 CNS and in the assay with UACC-257 melanoma was above 100 µM in each case.

Regarding `CCOC(=O)CNC(=O)C(C)NC(=O)C(NC(=O)OCc1ccccc1)C(C)C` (stereo not drawn) (Cbz-Val-Ala-Gly-OEt; configuration not given here), the TGI in the assay on 786-0 renal, in the assay with BT-549 breast, in the assay on CAKI-1 renal, in the assay on COLO 205 colon, in the assay with HOP-92 NSCLC and with HS 578T breast was above 100 µM throughout. Further, the TGI with K-562 leukemia, with M14 melanoma, with MOLT-4 leukemia, in the assay on NCI-H460 lung, with NCI/ADR-RES ovarian and with SF-268 CNS was above 100 µM throughout. For the same compound, the TGI in the assay with SK-MEL-28 melanoma, in the assay on SK-MEL-5 melanoma, in the assay on SK-OV-3 ovarian, in the assay with SNB-75 CNS, in the assay on U251 CNS and with UACC-257 melanoma was above 100 µM throughout.

As to `CCOC(=O)C1=C(C)NC(C)=C(C(=O)OCC)C1c1ccc(C)cc1`, the TGI with 786-0 renal is 45.8 µM; in the assay with A498 renal it was 97.9 µM; in the assay with BT-549 breast, above 100 µM; in the assay on CAKI-1 renal it was above 100 µM; in the assay on HOP-92 NSCLC, 51.5 µM; in the assay on HS 578T breast, above 100 µM. For the same compound, the TGI in the assay on K-562 leukemia was above 100 µM; in the assay on M14 melanoma it was above 100 µM; with MOLT-4 leukemia it was 74.6 µM; in the assay on NCI-H226 lung, above 100 µM; in the assay on NCI-H460 lung it was 48 µM; with SF-268 CNS, above 100 µM. For the same compound, the TGI was above 100 µM with SK-MEL-28 melanoma; 35.3 µM with SK-MEL-5 melanoma; above 100 µM with SK-OV-3 ovarian; above 100 µM with SNB-75 CNS; above 100 µM with U251 CNS; above 100 µM in the assay with UACC-257 melanoma.

As to `CC#CCCCC1(C)CCCNC1=S` (stereo unspecified), the TGI with 786-0 renal, with BT-549 breast, in the assay on HOP-92 NSCLC, with HS 578T breast, with K-562 leukemia and with M14 melanoma was above 10 µM throughout. The TGI with MOLT-4 leukemia, in the assay with NCI-H460 lung, in the assay with NCI/ADR-RES ovarian, in the assay with SF-268 CNS, in the assay on SK-MEL-5 melanoma and with SK-OV-3 ovarian was above 10 µM throughout. The TGI with SNB-75 CNS, in the assay with U251 CNS and in the assay on UACC-257 melanoma was above 10 µM each time.

On to `COc1cccc(C=C2N=C(C)N(n3c(-c4ccccc4)nc4ccccc4c3=O)C2=O)c1`, for which the TGI in the assay with 786-0 renal, with A498 renal, in the assay with BT-549 breast, in the assay with CAKI-1 renal, with COLO 205 colon and in the assay on HS 578T breast was above 100 µM each time. Also, the TGI in the assay with K-562 leukemia, with M14 melanoma, with MOLT-4 leukemia, with NCI-H226 lung, with NCI-H460 lung and in the assay on SF-268 CNS was above 100 µM throughout. Besides, the TGI in the assay on SK-MEL-28 melanoma, in the assay on SK-MEL-5 melanoma, in the assay with SK-OV-3 ovarian, with SNB-75 CNS and in the assay on UACC-257 melanoma was above 100 µM throughout.

On to `NC(=O)C1N=NSC1NC(=O)c1ccc([N+](=O)[O-])cc1` (stereo unspecified), for which the TGI in the assay with 786-0 renal, in the assay with BT-549 breast, in the assay with CAKI-1 renal, in the assay with COLO 205 colon, with HS 578T breast and in the assay on K-562 leukemia was above 100 µM in each case. Moreover, the TGI in the assay with M14 melanoma, with MOLT-4 leukemia, in the assay on NCI-H226 lung, in the assay on NCI-H460 lung, in the assay on NCI/ADR-RES ovarian and in the assay on SF-268 CNS was above 100 µM each time. The TGI with SK-MEL-28 melanoma is above 100 µM; with SK-MEL-5 melanoma, 69.8 µM; in the assay with SK-OV-3 ovarian, above 100 µM; in the assay with SNB-75 CNS, above 100 µM; in the assay on U251 CNS it was above 100 µM; in the assay with UACC-257 melanoma, above 100 µM.
